The results in this text go back to US6436941B1, “5,6-dihydro-napth[1,2-d]-imidazole, napth[1,2-d]imidazole, and chromane[3,4-d]imidazole derivatives” (Neurogen Corporation, priority 1995, dated 2002).

One data set has as its target T1, D2 receptors (Chlorocebus aethiops, UniProt P52702).
T1 construct: expressed in transfected cells; host or cells: COS cells
The experiment in a line: D2 receptor binding assay (3H-YM 09151-2 displacement). The arrangement: species or system African Green monkey. The note with it: COS cells with recombinant D2 receptor; 0.5 nM 3H-YM 09151-2. How it is done: (§1) Assay for D2 and D3 receptor binding activity
(§2) Pellets of COS cells containing recombinantly produced D2 or D3 receptors from African Green monkey were used for the assays. The sample is homogenized in 100 volumes (w/vol) of 0.05 M Tris HCl buffer at 4° C. and pH 7.4. The sample is then centrifuged at 30,000×g and resuspended and rehomogenized. The sample is then centrifuged as described and the final tissue sample is frozen until use. The tissue is resuspended 1:20 (wt/vol) in 0.05 M Tris HCl buffer containing 100 mM NaCl.
(§3) Incubations are carried out at 48° C. and contain 0.4 ml of tissue sample, 0.5 nM ^3H-YM 09151-2 and the compound of interest in a total incubation of 1.0 ml. Nonspecific binding is defined as that binding found in the presence of 1 μM spiperone; without further additions, nonspecific binding is less than 20% of total binding.

A further data set addresses T2, D3 receptors (Chlorocebus aethiops, UniProt P52703).
T2 construct: expressed in transfected cells; host or cells: COS cells
Briefly: D3 receptor binding assay (3H-YM 09151-2 displacement). The arrangement: species or system African Green monkey. The note with it: COS cells with recombinant D3 receptor; 0.5 nM 3H-YM 09151-2. How it is done: as §1, §2, §3

The target of data set [1] is T3, human dopamine D4 receptor subtype (Homo sapiens, UniProt P21917).
T3 construct: expressed in transfected cells
T3 sequence (P21917 1-419): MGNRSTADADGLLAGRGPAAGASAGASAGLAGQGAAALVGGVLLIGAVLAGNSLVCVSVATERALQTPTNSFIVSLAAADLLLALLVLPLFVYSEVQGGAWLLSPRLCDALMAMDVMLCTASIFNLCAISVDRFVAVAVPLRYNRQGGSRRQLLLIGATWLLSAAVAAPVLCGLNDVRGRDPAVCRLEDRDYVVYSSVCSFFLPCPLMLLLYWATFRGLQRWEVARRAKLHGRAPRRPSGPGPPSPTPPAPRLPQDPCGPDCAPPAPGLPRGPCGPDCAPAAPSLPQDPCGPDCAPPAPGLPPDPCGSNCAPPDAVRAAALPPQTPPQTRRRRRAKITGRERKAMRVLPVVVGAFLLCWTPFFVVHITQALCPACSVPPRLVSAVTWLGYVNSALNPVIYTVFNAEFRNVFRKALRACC
The experiment in a line: D4 receptor binding assay ([3H]YM-09151-2 displacement). How it is done: Assay for D4 receptor binding activity
Clonal cell lines expressing the human dopamine D4 receptor subtype were harvested in PBS and the cells centrifuged and the pellets stored at −80° C. until used in the binding assay. The pellets were resuspended and the cells lysed at 4° C. in 50 mM Tris pH 7.4 buffer containing 120 mM NaCl, 1 mM EDTA and 5 mM MgCl2. The homogenate is centrifuged at 48000×g for 10 minutes at 4° C. The resulting pellet is resuspended in fresh buffer and centrifuged again. After resuspension of the pellet in fresh buffer a […] aliquot is removed for protein determination. […] Incubations were carried out for 60 minutes at 25° C. in the presence of 0.1 nM [^3H] […] The incubation was terminated by rapid filtration through Whatman GF/C filters and rinsed with 2×4 ml washes of chilled 50 mM Tris (pH 7.4) and 120 mM NaCl. Non-specific binding was determined with 1 μM spiperone and radioactivity determined by counting in an LKB beta counter. Binding parameters were determined by non-linear least squares regression analysis, from which the inhibition constant Ki could be calculated for each test compound.

Setting [2] is: clonal cell lines expressing human D4, 0.1 nM [3H]YM-09151-2, 60 minutes at 25° C., read-out: Ki.

Structures can show the parent of a compound that is named as a salt. Where two headings read alike, the source gives them in different places.

T1 sequence (P52702 whole entry): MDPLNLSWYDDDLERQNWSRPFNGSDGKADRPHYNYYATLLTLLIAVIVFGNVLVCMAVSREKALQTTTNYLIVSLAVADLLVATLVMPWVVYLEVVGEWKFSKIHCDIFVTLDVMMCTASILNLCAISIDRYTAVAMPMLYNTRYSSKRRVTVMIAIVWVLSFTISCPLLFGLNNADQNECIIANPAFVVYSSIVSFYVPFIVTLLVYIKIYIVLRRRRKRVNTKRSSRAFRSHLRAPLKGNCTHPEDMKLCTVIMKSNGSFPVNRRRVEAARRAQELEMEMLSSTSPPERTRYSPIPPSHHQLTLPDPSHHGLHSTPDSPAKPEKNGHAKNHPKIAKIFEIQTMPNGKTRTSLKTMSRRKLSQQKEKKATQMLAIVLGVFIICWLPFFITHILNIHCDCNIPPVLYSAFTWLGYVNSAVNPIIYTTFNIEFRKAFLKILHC
T2 sequence (P52703 whole entry): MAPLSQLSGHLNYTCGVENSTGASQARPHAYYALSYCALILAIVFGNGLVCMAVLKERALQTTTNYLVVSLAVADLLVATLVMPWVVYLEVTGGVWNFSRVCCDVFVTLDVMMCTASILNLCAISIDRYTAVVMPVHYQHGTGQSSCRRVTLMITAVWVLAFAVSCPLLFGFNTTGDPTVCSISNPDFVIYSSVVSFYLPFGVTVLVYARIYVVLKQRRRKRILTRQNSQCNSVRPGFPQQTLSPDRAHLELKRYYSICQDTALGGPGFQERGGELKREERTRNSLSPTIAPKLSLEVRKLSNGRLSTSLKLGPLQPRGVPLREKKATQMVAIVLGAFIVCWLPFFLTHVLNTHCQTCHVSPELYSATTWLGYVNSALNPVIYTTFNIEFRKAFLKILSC

The compound `c1cnc(N2CCN(Cc3nc4c([nH]3)-c3ccccc3CC4)CC2)nc1` (as salt: hydrochloride) [Compound 1, 1H-2-(1-(4-(2-pyrimidyl)piperazinyl))methyl-(5,6-dihydro)-naphth[1,2-d]imidazole dihydrochloride] yielded a melting point of 212 to 214 °C.
As to `CN(Cc1ccccc1)Cc1nc2c([nH]1)-c1ccccc1CC2` (as salt: hydrochloride) [Compound 2, 1H-{2-(N-benzyl-N-methyl)aminomethyl}-(5,6-dihydro)-naphth[1,2-d]imidazole dihydrochloride], the melting point fell in the range of 225 to 227 °C.
As to `CN(Cc1ccccc1)Cc1nc2c([nH]1)-c1ccccc1OC2` (as salt: hydrochloride) [Compound 3, 1H-{2-(N-benzyl-N-methyl)aminomethyl}chromano[3,4-d]imidazole dihydrochloride], the melting point is 198 to 201 °C (dec.).
As to `c1cnc(N2CCN(Cc3nc4c([nH]3)-c3ccccc3CC4)CC2)nc1` [Compound 1, 1H-2-(1-(4-(2-pyrimidyl)piperazinyl))methyl-(5,6-dihydro)-naphth[1,2-d]imidazole dihydrochloride], the Ki came to 4200 nM at D2 receptors, 7800 nM at D3 receptors and 12 nM in data set [1] (setting [2]).
As for `CN(Cc1ccccc1)Cc1nc2c([nH]1)-c1ccccc1CC2` [Compound 2, 1H-{2-(N-benzyl-N-methyl)aminomethyl}-(5,6-dihydro)-naphth[1,2-d]imidazole dihydrochloride], the inhibition constant Ki on D2 receptors is 350 nM; at D3 receptors, 210 nM; in data set [1], 81 nM.
As for `CN(Cc1ccccc1)Cc1nc2c([nH]1)-c1ccccc1OC2` [Compound 3, 1H-{2-(N-benzyl-N-methyl)aminomethyl}chromano[3,4-d]imidazole dihydrochloride], the Ki at D2 receptors came to 220 nM; on D3 receptors, 440 nM; in data set [1] (setting [2]), 145 nM.

As a reminder, the melting point is the temperature of the solid-liquid transition. By Ki is commonly meant the equilibrium dissociation constant of an inhibitor or competing ligand from its target.
